Measured values as given in patent US9034855B2, “Substituted phenylacetate and phenylpropane amides and use thereof” (Bayer Intellectual Property GmbH, priority 2010, dated 2015).
pIC50: −log10 of the molar value.

Key:
human V2 receptor = target: T1, human V2 receptor (Homo sapiens, UniProt P30518); assay: Cellular in vitro assay for determining the vasopressin receptor activity (aequorin luminescence, recombinant CHO cells), human V2; assay type: cell-based; settings: CHO cells expressing aequorin and Gα16, transfected with human V2 receptor; agonist [Arg8]-vasopressin; read-out: IC50 hV2
T1 construct: expressed in transfected cells; host or cells: CHO K1 (ATCC), constitutively expressing modified aequorin, co-transfected with promiscuous G-alpha-16
Text: (§1) B-1. Cellular In Vitro Assay for Determining the Vasopressin Receptor Activity
(§2) The identification of agonists and antagonists of the V1a and V2 vasopressin receptors from humans and rats and also the quantification of the activity of the substances described here takes place using recombinant cell lines. These cells derive originally from a hamster's ovary epithelial cell (Chinese Hamster Ovary, CHO K1, ATCC: American Type Culture Collection, Manassas, Va. 20108, USA). The test cell lines constitutively express a modified form of the calcium-sensitive photoprotein aequorin, which, after reconstitution with the cofactor coelenterazine, emits light when there are increases in the free calcium concentration (Rizzuto R., Simpson A. W., Brini M., Pozzan T.; Nature 358 (1992) 325-327). In addition, the cells are stably transfected with the human or rat V1a or V2 receptors. In the case of the Gs-coupling V2 receptors, the cells are stably transfected with a further gene, which codes for the promiscuous Gα16 protein (Amatruda T. T., Steele D. A., Slepak V. Z., Simon M A., Proc. Na. Acad. Sci. USA 88 (1991), 5587-5591), either independently or as a fusion gene. The resulting vasopressin receptor test cells react to stimulation of the recombinantly expressed vasopressin receptors by intracellular release of calcium ions, which can be quantified by the resulting aequorin luminescence using a suitable luminometer (Milligan G., Marshall F., Rees S., Trends in Pharmaco. Sci. 17 (1996) 235-237).
(§3) On the day before the assay, the cells are plated out in culture medium (DMEM, 10% FCS, 2 mM glutamine, 10 mM HEPES) in 384-well microtiter plates and kept in a cell incubator (96% atmospheric humidity, 5% v/v carbon dioxide, 37° C.). On the day of the assay, the culture medium is replaced by a Tyrode solution (140 mM sodium chloride, 5 mM potassium chloride, 1 mM magnesium chloride, 2 mM calcium chloride, 20 mM glucose, 20 mM HEPES), which additionally contains the cofactor coelenterazine (50 μM), and the microtiter plate is then incubated for a further 3-4 hours. The test substances in various concentrations are placed for 10 to 20 minutes in the wells of the microtiter plate before the agonist [Arg8]-vasopressin is added, and the resulting light signal is measured immediately in the luminometer. The IC50 values are calculated using the GraphPad PRISM computer program (Version 3.02).
(§4) Table A below lists representative IC50 values for the compounds according to the invention transfected with the human V1a or V2 receptor: […]

human V1a receptor = target: T2, human V1a receptor (Homo sapiens, UniProt P37288); assay: Cellular in vitro assay for determining the vasopressin receptor activity (aequorin luminescence, recombinant CHO cells), human V1a; assay type: cell-based; settings: CHO cells expressing aequorin, transfected with human V1a receptor; agonist [Arg8]-vasopressin; read-out: IC50 hV1a
T2 construct: expressed in transfected cells; host or cells: CHO K1 (ATCC), constitutively expressing modified aequorin
Text: as §1, §2, §3, §4

T2 sequence (P37288 whole entry): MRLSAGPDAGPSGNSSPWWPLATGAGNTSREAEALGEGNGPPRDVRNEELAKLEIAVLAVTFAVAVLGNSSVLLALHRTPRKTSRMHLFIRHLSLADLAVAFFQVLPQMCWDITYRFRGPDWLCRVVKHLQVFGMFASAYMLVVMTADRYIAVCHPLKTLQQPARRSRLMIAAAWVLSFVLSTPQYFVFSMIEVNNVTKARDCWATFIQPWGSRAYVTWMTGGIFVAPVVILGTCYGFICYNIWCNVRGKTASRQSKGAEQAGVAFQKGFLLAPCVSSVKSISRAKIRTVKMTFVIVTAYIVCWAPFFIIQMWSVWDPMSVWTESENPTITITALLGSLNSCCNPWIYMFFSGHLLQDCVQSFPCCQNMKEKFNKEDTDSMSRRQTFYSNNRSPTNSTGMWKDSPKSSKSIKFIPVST
T1 sequence (P30518 whole entry): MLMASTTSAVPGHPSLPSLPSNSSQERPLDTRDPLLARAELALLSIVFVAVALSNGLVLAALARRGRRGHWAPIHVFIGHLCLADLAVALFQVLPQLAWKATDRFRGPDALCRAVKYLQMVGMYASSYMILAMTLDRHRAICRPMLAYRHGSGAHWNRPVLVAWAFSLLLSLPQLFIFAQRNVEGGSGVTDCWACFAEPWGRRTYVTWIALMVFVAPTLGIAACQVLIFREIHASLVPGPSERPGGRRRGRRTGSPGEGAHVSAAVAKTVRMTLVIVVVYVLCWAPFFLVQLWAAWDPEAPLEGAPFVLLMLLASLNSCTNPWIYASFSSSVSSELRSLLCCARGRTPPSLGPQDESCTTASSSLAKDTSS

SMILES | pIC50 (human V2 receptor) | pIC50 (human V1a receptor)
C[C@](NC(=O)Cn1nc(-c2ccc(Cl)cc2)n(C[C@H](O)C(F)(F)F)c1=O)(C(=O)NCCC(N)=O)c1cccc(C(F)(F)F)c1 [Example 19, N^3-{(2R)-2-[({3-(4-Chlorophenyl)-5-oxo-4-[(2S)-3,3,3-trifluoro-2-hydroxypropyl]-4,5-dihydro-1H-1,2,4-triazol-1-yl}acetyl)amino]-2-[3-(trifluoromethyl)phenyl]propanoyl}-beta-alaninamide] | 8.96 | 9.22
COC(=O)C(C)(C)NC(=O)[C@](C)(NC(=O)Cn1nc(-c2ccc(Cl)cc2)n(C[C@H](O)C(F)(F)F)c1=O)c1cccc(C(F)(F)F)c1 [Example 20, Methyl N-{(2R)-2-[({3-(4-chlorophenyl)-5-oxo-4-[(2S)-3,3,3-trifluoro-2-hydroxypropyl]-4,5-dihydro-1H-1,2,4-triazol-1-yl}acetyl)amino]-2-[3-(trifluoromethyl)phenyl]propanoyl}-2-methylalaninate] | 8.35 | 8.62
CC(C)(NC(=O)[C@](C)(NC(=O)Cn1nc(-c2ccc(Cl)cc2)n(C[C@H](O)C(F)(F)F)c1=O)c1cccc(C(F)(F)F)c1)C(N)=O [Example 22, N^2-{(2R)-2-[({3-(4-Chlorophenyl)-5-oxo-4-[(2S)-3,3,3-trifluoro-2-hydroxypropyl]-4,5-dihydro-1H-1,2,4-triazol-1-yl}acetyl)amino]-2-[3-(trifluoromethyl)phenyl}propanoyl]-2-methylalaninamide] | 8.57 | 8.92
COC(=O)C(C)(C)NC(=O)C[C@H](NC(=O)Cn1nc(-c2ccc(Cl)cc2)n(C[C@H](O)C(F)(F)F)c1=O)c1cccc(C(F)(F)F)c1 [Example 38, Methyl N-{(3S)-3-[({3-(4-chlorophenyl)-5-oxo-4-[(2S)-3,3,3-trifluoro-2-hydroxypropyl]-4,5-dihydro-1H-1,2,4-triazol-1-yl}acetyl)amino]-3-[3-(trifluoromethyl)phenyl]propanoyl}-2-methylalaninate] | 7.41 | 7.48
CC(C)(NC(=O)C[C@H](NC(=O)Cn1nc(-c2ccc(Cl)cc2)n(C[C@H](O)C(F)(F)F)c1=O)c1cccc(C(F)(F)F)c1)C(=O)O [Example 39, N-{(3S)-3-[({3-(4-Chlorophenyl)-5-oxo-4-[(2S)-3,3,3-trifluoro-2-hydroxypropyl]-4,5-dihydro-1H-1,2,4-triazol-1-yl}acetyl)amino]-3-[3-(trifluoromethyl)phenyl]propanoyl}-2-methylalanine] | 9.10 | 8.31
CC(C)(NC(=O)C[C@H](NC(=O)Cn1nc(-c2ccc(Cl)cc2)n(C[C@H](O)C(F)(F)F)c1=O)c1cccc(C(F)(F)F)c1)C(N)=O [Example 40, N^2-{(3S)-3-[({3-(4-Chlorophenyl)-5-oxo-4-[(2S)-3,3,3-trifluoro-2-hydroxypropyl]-4,5-dihydro-1H-1,2,4-triazol-1-yl}acetyl)amino]-3-[3-(trifluoromethyl)phenyl]propanoyl}-2-methylalaninamide] | 8.09 | 7.95
O=C(Cn1nc(-c2ccc(Cl)cc2)n(C[C@H](O)C(F)(F)F)c1=O)NC(C(=O)NCCO)c1cccc(C(F)(F)F)c1 (stereo partly drawn) [Example 49, 2-[({3-(4-Chlorophenyl)-5-oxo-4-[(2S)-3,3,3-trifluoro-2-hydroxypropyl]-4,5-dihydro-1H-1,2,4-triazol-1-yl}acetyl)amino]-N-(2-hydroxyethyl)-2-[3-(trifluoromethyl)phenyl]acetamide] | 8.12 | 8.66
O=C(C[C@H](NC(=O)Cn1nc(-c2ccc(Cl)cc2)n(C[C@H](O)C(F)(F)F)c1=O)c1ccccc1C(F)(F)F)NCCO [Example 53, (3S)-3-[({3-(4-Chlorophenyl)-5-oxo-4-[(2S)-3,3,3-trifluoro-2-hydroxypropyl]-4,5-dihydro-1H-1,2,4-triazol-1-yl}acetyl)amino]-N-(2-hydroxyethyl)-3-[2-(trifluoromethyl)phenyl]propanamide] | 8.59 | 9.05
O=C(C[C@H](NC(=O)Cn1nc(-c2ccc(Cl)cc2)n(C2CC2)c1=O)c1ccccc1C(F)(F)F)NCCO [Example 55, (3S)-3-({[3-(4-Chlorophenyl)-4-cyclopropyl-5-oxo-4,5-dihydro-1H-1,2,4-triazol-1-yl]acetyl}-amino)-N-(2-hydroxyethyl)-3-[2-(trifluoromethyl)phenyl]propanamide] | 6.24 | 8.22
COCCNC(=O)C(NC(=O)Cn1nc(-c2ccc(Cl)cc2)n(C[C@H](O)C(F)(F)F)c1=O)c1ccccc1C(F)(F)F (stereo partly drawn) [Example 56, 2-[({3-(4-Chlorophenyl)-5-oxo-4-[(2S)-3,3,3-trifluoro-2-hydroxypropyl]-4,5-dihydro-1H-1,2,4-triazol-1-yl}acetyl)amino]-N-(2-methoxyethyl)-2-[2-(trifluoromethyl)phenyl]acetamide] | 6.84 | 8.52
COCCNC(=O)C[C@H](NC(=O)Cn1nc(-c2ccc(Cl)cc2)n(C[C@H](O)C(F)(F)F)c1=O)c1cccc(C(F)(F)F)c1 [Example 57, (3S)-3-[({3-(4-Chlorophenyl)-5-oxo-4-[(2S)-3,3,3-trifluoro-2-hydroxypropyl]-4,5-dihydro-1H-1,2,4-triazol-1-yl}acetyl)amino]-N-(2-methoxyethyl)-3-[3-(trifluoromethyl)phenyl]propanamide] | 8.13 | 7.84
COCCNC(=O)C[C@H](NC(=O)Cn1nc(-c2ccc(Cl)cc2)n(C[C@H](O)C(F)(F)F)c1=O)c1ccccc1C(F)(F)F [Example 58, (3S)-3-[({3-(4-Chlorophenyl)-5-oxo-4-[(2S)-3,3,3-trifluoro-2-hydroxypropyl]-4,5-dihydro-1H-1,2,4-triazol-1-yl}acetyl)amino]-N-(2-methoxyethyl)-3-[2-(trifluoromethyl)phenyl]propanamide] | 6.87 | 8.46
